{"source": "patent US20050014681A1", "about": "“Medicinal compositions for nasal absorption” (priority 2001, published 2005)", "key": {"blood glucose level": {"test_system": "blood glucose level", "experiment": "Blood glucose level decreasing effect of nasally administered incretin hormones in glucose-loaded rats", "format": "in vivo", "conditions": "nasal powder about 100 μg polypeptide, 15 min after dosing, 10 min after 0.5 g/kg i.v. glucose, control 196", "procedure": "As for the composition containing incretin hormones, the blood glucose level fell as compared with the control group. Moreover, also the incretin hormones, the blood glucose level fell when composition containing 5% corn starch is added compared with when 5% corn starch is not added."}, "[1]": {"experiment": "Absorbability of powder preparation for nasal administration using dogs (RIA)", "conditions": "beagle, dog, in vivo, 50 ug/kg", "procedure": "(§1) An anti-rabbit IgG goat serum was then added, and the mixture was allowed to stand for 1 hour at 4° C. The resulting sample was centrifuged and the radioactivity (gamma-ray) of the precipitate was measured by a gamma counter.\nAs a control, one additive-free sample of the composition for nasal administration was prepared."}, "[2]": {"experiment": "Absorbability of powder preparation for nasal administration using cynomolgus monkeys, Test-1 (RIA)", "conditions": "cynomolgus monkey, in vivo, sc, 13 ug/kg", "procedure": "as §1\nEach additive was added to the pharmaceutical composition in amounts of 0.5%, 1.0%, 10% and 50% with respect to the total weight of the preparation.\nThe bioavailability was determined by comparing the AUC after nasal administration with the AUC after subcutaneous administration."}, "in vivo": {"experiment": "in vivo", "conditions": "male, SD (Crj: CD), rat, plasma", "procedure": "as §1\nMale SD rats, aged 7 to 9 weeks and weighing about 250 g (Crj: CD, Charles River Japan Inc.,), were kept in a metal cage with a day/night cycle of 12 hours while maintaining the temperature at 22±5° C. and the humidity at 30 to 70%. The rats were allowed to feed freely on solid feed and tap water and were fasted for 24 hours prior to the test (3 animals per group).\n[…] The blood was collected into a tube containing anticoagulant and enzyme inhibitor at 0, 5, 10, 15, 20, 30, 60, and 90 minutes after administration and was centrifuged to obtain plasma. […] For subcutaneous administration, the sample solution for subcutaneous administration (about 15 μg/mL) was subcutaneously administered in the back of the rats using a syringe at a dosage of 1 mL/kg."}, "[3]": {"conditions": "background statement; cited from earlier work"}}}
{"compound": "[Lys^26, ε-NH{γ-Glu(N-α-palmitoyl)}]-GLP-1 (7-37)", "values": [{"measurement": "blood glucose level (Mean)", "setting": "blood glucose level; composition: 5% corn starch", "result": 154, "unit": "mg/dL"}, {"measurement": "blood glucose level (Mean)", "setting": "blood glucose level; composition: No additive", "result": 184, "unit": "mg/dL"}]}
{"compound": "CC[C@H](C)[C@H](NC(=O)[C@H](Cc1ccccc1)NC(=O)[C@H](CCC(=O)O)NC(=O)[C@H](CCCCN)NC(=O)[C@H](C)NC(=O)[C@H](C)NC(=O)[C@H](CCC(N)=O)NC(=O)CNC(=O)[C@H](CCC(=O)O)NC(=O)[C@H](CC(C)C)NC(=O)[C@H](Cc1ccc(O)cc1)NC(=O)[C@H](CO)NC(=O)[C@H](CO)NC(=O)[C@@H](NC(=O)[C@H](CC(=O)O)NC(=O)[C@H](CO)NC(=O)[C@@H](NC(=O)[C@H](Cc1ccccc1)NC(=O)[C@@H](NC(=O)CNC(=O)[C@H](CCC(=O)O)NC(=O)[C@H](C)NC(=O)[C@@H](N)Cc1c[nH]cn1)[C@@H](C)O)[C@@H](C)O)C(C)C)C(=O)N[C@@H](C)C(=O)N[C@@H](Cc1c[nH]c2ccccc12)C(=O)N[C@@H](CC(C)C)C(=O)N[C@H](C(=O)N[C@@H](CCCCN)C(=O)NCC(=O)N[C@@H](CCCNC(=N)N)C(N)=O)C(C)C", "note": "[GLP-1(7-36)NH2, GLP-1 (7-36)NH2]", "values": [{"measurement": "AUC(0-inf)", "setting": "[1]", "result": "5.15 ± 5.13", "unit": "ng·h/mL"}, {"measurement": "Cmax", "setting": "[1]", "result": "20.4 ± 3.48", "unit": "ng/mL"}, {"measurement": "AUC(0-inf)", "setting": "[2]", "result": "3.23 ± 0.5", "unit": "ng·h/mL"}, {"measurement": "Cmax", "setting": "[2]", "result": "6.37 ± 2.54", "unit": "ng/mL"}, {"measurement": "AUC", "setting": "in vivo; inhaled or intranasal, 1 ug/kg", "result": "2.47 ± 1.44", "unit": "ng·h/mL"}, {"measurement": "Cmax", "setting": "in vivo; inhaled or intranasal, 1 ug/kg", "result": "4.7 ± 3.28", "unit": "ng/mL"}, {"measurement": "AUC", "setting": "in vivo; sc, 15 ug/kg", "result": "3.82 ± 0.58", "unit": "ng·h/mL"}, {"measurement": "Cmax", "setting": "in vivo; sc, 15 ug/kg", "result": "6.68 ± 0.86", "unit": "ng/mL"}]}
{"compound": "casein", "values": [{"measurement": "isoelectric point (pI)", "setting": "[3]", "result": "about 4.6"}]}
{"compound": "Exendin-4", "values": [{"measurement": "blood glucose level (Mean)", "setting": "blood glucose level; composition: 5% corn starch", "result": 151, "unit": "mg/dL"}, {"measurement": "blood glucose level (Mean)", "setting": "blood glucose level; composition: No additive", "result": 166, "unit": "mg/dL"}]}
{"compound": "GLP-1 (7-37) [GLP-1(7-37)]", "values": [{"measurement": "blood glucose level (Mean)", "setting": "blood glucose level; composition: 5% corn starch", "result": 146, "unit": "mg/dL"}, {"measurement": "blood glucose level (Mean)", "setting": "blood glucose level; composition: No additive", "result": 170, "unit": "mg/dL"}]}
{"compound": "[Val^8]-GLP-1 (7-37) (HVEGTFTSDVSSYLEGQAAKEFIAWLVKGRG; Glucagon-like peptide 1(7-37); UniProt P01275 98-128, looked up, variant A8V) [[Val^8]-GLP-1(7-37)]", "values": [{"measurement": "blood glucose level (Mean)", "setting": "blood glucose level; composition: 5% corn starch", "result": 147, "unit": "mg/dL"}, {"measurement": "blood glucose level (Mean)", "setting": "blood glucose level; composition: No additive", "result": 168, "unit": "mg/dL"}]}
